Target: T1, human TPO receptor (Homo sapiens, UniProt P40238)
T1 construct: expressed in transfected cells
T1 sequence (P40238 26-635): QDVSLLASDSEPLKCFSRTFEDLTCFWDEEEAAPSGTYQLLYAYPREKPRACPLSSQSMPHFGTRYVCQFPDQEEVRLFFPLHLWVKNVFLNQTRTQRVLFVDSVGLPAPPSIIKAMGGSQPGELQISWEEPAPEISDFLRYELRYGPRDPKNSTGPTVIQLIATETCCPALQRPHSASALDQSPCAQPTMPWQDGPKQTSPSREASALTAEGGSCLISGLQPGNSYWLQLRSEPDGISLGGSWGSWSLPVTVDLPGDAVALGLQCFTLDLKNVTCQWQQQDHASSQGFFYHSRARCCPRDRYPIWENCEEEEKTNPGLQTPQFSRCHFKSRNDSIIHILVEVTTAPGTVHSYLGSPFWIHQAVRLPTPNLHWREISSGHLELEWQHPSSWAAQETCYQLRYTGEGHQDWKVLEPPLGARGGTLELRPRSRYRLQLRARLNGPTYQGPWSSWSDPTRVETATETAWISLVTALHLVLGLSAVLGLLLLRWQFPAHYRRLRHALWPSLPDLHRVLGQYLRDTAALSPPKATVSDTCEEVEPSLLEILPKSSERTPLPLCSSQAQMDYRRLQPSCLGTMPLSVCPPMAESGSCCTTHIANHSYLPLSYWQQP
Assay: Proliferation of TPO-dependent cell line UT7/EPO-mpl, WST-8 reagent (Assay Example 5)
Format: cell-based
Settings: WST-8, 4 days; for Efficacy (%) (maximal growth rate): growth with 10 ng/ml TPO = 100%
Procedure: Human leukemic cell line UT7/EPO-mpl was washed twice with PBS and suspended in IMDM containing 10% FBS at a cell density of 6×10^4 cells/ml. The cell suspension was transferred to a 96-well tissue culture plate (CORNING) in 100-μl aliquots. Then either TPO or the following Synthetic Examples, each dissolved in DMSO, were diluted 83-fold with IMDM containing 10% FBS and added to the aforementioned cell suspension in 20-μl aliquots. The suspension was incubated in a CO2 incubator (5% CO2, 37° C.) for 4 days. Cell proliferation was assayed using WST-8 reagent (Kishida Chemical, Co. Ltd.) according to instructions by the manufacturer. A 10-μl aliquot of 5 mM WST-8 reagent solution was added to each well of the tissue culture plate and the plate was incubated at 37° C. for 4 h. The formazan pigment generated was detected by measuring the absorbance at 450 nm with a 96-well microplate reader (Nihon Molecular Devices, SpectraMax 190). The concentration of each compound that yields a growth rate corresponding to 50% of the growth of human leukemic cell line UT7/EPO-mpl observed in the presence of 10 ng/ml TPO (EC50T) and the maximal growth rate achieved by the same compound (efficacy), expressed by taking the value with human leukemic cell line UT7/EPO-mpl in the presence of 10 ng/ml TPO as 100% standard, are summarized in Table 9.

SMILES	EC50T (concentration yielding 50% of the growth observed with 10 ng/ml TPO) [µg/mL]	Efficacy (%) (maximal growth rate)	EC50 (read-out: EC50T (concentration yielding 50% of the growth observed with 10 ng/ml TPO) (converted)) [nM]
CC1=NN(c2ccc(C(C)(C)C)cc2)C(=O)C1=C(C)NNC(=O)c1ccc(C(=O)O)s1 [compound 99]	0.0039	110	–
CC1=NN(c2ccc3ccccc3n2)C(=O)C1=C(C)NNC(=O)c1ccc(C(=O)O)cc1 [compound 100]	0.059	107	–
COC(=O)c1ccc(C(=O)NNC(C)=C2C(=O)N(c3ccc(C(C)(C)C)cc3)N=C2C)s1 [compound 98]	0.031	96	–
COC(=O)c1ccc(C(=O)NNC(C)=C2C(=O)N(c3ccc(C)c(C)c3)N=C2C(F)(F)F)cc1 [compound 95]	0.052	71	–
CC1=NN(c2ccc(C(F)(F)F)cn2)C(=O)C1=C(C)NNC(=O)c1ccc(C(=O)O)cc1 [compound 102]	0.069	100	–
CC(NNC(=O)c1ccc(O)cc1O)=C1C(=O)N(c2ccc(C)c(C)c2)N=C1C(F)(F)F [compound 94]	0.0033	95	–
CC1=NN(c2ccc(C(C)(C)C)cc2)C(=O)C1=CNNC(=O)c1ccc(C(=O)O)cc1 [compound 97]	0.025	94	–
CC(NNC(=O)c1ccc(C(=O)O)cc1)=C1C(=O)N(c2ccc(C)c(C)c2)N=C1C(F)(F)F [compound 96]	0.0033	93	–
CC1=NN(c2ccc(C(C)(C)C)cc2)C(=O)C1=C(C)NNC(=O)c1ccc(-c2nnn[nH]2)cc1 [compound 103]	–	90	10.5

Source: patent US8053453B2, “Pyrazolone compounds and thrombopoietin receptor activator” (Nissan Chemical Industries, Ltd., priority 2002, dated 2011)
